This is an account of results in patent publication US20160136127A1, “USE OF TETRAHYDROCANNABINOL AND/OR CANNABIDIOL FOR INCREASING RADIOSENSITVITY IN THE TREATMENT OF A BRAIN TUMOUR” (GW PHARMA LIMITED, priority 2013, published 2016).

Molecules are shown by their SMILES.

The subject of assay [1] is glioma cell lines T98G, U87MG and GL261. The experiment in a line: Clonogenic cell survival assay after irradiation (radiosensitivity of glioma cell lines). It counts as cell-based, human (T98G, U87MG); mouse (GL261). Conditions: pure phytocannabinoid used alone, increasing concentrations, 24 h prior to irradiation (0, 1, 2 and 5 Gy, Cs137); FIG. 2 / FIG. 3. The procedure: The human glioma cell lines T98G and U87MG were obtained from ATCC, and were lines derived from patients with a glioblastoma multiforme tumour and a glioblastoma astrocytoma respectively.
The mouse glioma cell line GL261, which is syngeneic to the C57BL/6 mouse was acquired from the NCI.
Cells were exposed to increasing doses of irradiation and then clonogenic cell survival assays were performed. The ability of the cells to survive an irradiation insult and go on and divide indefinitely forming a colony was assessed in this manner and used as our read-out of radiosensitivity.
Cells were initially seeded into flasks and left to adhere overnight. […] Cells were then harvested, counted and seeded again at increasing densities in 6-well plates, adjusting the density appropriately for the radiation dose, and then incubated for approximately 14 days. […] Colonies consisting of >50 cells were counted and calculated as a proportion of the number of cells initially seeded (surviving fraction). […]
Cells were initially seeded into flasks and left to adhere overnight. […] Cells were then harvested, counted and seeded again at increasing densities in 6-well plates, adjusting the density appropriately for the radiation dose, and then incubated for approximately 14 days. […] Colonies consisting of >50 cells were counted and surviving fraction was calculated. […]

Assay [2] has as its system U87 and U373 human glioma cell lines. Particulars: cited from earlier work.
Assay [3] has as its system U87 human glioma cells subcutaneously implanted to nude mice. Conditions: cited from earlier work.

Regarding `C=C(C)[C@@H]1CCC(C)=C[C@H]1c1c(O)cc(CCCCC)cc1O` [CBD, Cannabidiol], the “effect on radiosensitivity (surviving fraction)” value in assay [1] is listed as “did not appear to alter the radiosensitivity”. For the same compound, in assay [2], the anti-proliferative effects in-vitro result was “anti-proliferative effects”. Besides, the anti-proliferative effects in-vivo result in assay [3] is given as “anti-proliferative effects”.
With `CCCCCc1cc(O)c2c(c1)OC(C)(C)[C@@H]1CCC(C)=C[C@@H]21` [THC, Tetrahydrocannabinol], the “effect on radiosensitivity (surviving fraction)” value in assay [1] is listed as “did not appear to alter the radiosensitivity”.
